Five compounds from ChEMBL document CHEMBL1158740, “Oxylipins arabidopsides C and D from Arabidopsis thaliana” (2005) can be followed below.

For orientation: inhibition means the change of the read-out against control, counted positive when it falls. High values mean a response far below the control, low ones a response near the control.

In this assay the test system is Lepidium sativum. Put plainly: Inhibition of Lepidium sativum cress root growth at 5X10'-5 mol/L after 40 hrs. It counts as functional.
Compound `CC/C=C\CC1C(=O)C=CC1CCCCCCCC(=O)O` (cis isomer) came in with an inhibition at 50 µM of 50%.

`CC/C=C\C[C@H]1C(=O)C=C[C@H]1CCCCCCCC(=O)OC[C@H](CO[C@@H]1O[C@H](CO)[C@H](O)[C@H](O)[C@H]1O)OC(=O)CCCCC[C@@H]1C=CC(=O)[C@@H]1C/C=C\CC` [ARABIDOPSIDE A] returned an inhibition at 50 µM of 30%. Under `CC/C=C\C[C@H]1C(=O)C=C[C@H]1CCCCCCCC(=O)OC[C@H](CO[C@@H]1O[C@H](CO)[C@H](O)[C@H](O)[C@H]1O)OC(=O)CCCCCCC[C@@H]1C=CC(=O)[C@@H]1C/C=C\CC` [ARABIDOPSIDE B] stands 30%; under `CC/C=C\CC1C(=O)C=CC1CCCCCCCC(=O)OCC(CO[C@@H]1O[C@H](CO[C@H]2O[C@H](CO)[C@H](O)[C@H](O)[C@H]2O)[C@H](O)[C@H](O)[C@H]1O)OC(=O)CCCCCCCC1C=CC(=O)C1C/C=C\CC` (stereo not given in full) [Arabidopside D], 30%. Under `CC/C=C\C[C@H]1C(=O)CC[C@@H]1CC(=O)O` [JASMONIC ACID] stands 50%.
